{"source": "patent US11015215B2", "about": "“Use of high flux SCFA-derivatized monosaccharides in recombinant glycoprotein production” (The Johns Hopkins University, priority 2014, dated 2021)", "key": {"[1]": {"test_system": "human protein integrin α4 stably expressed in a CHO line", "test": "Azido-sugar labeling of integrin α4 in CHO cells (click biotinylation, streptavidin blot)", "format": "cell-based", "details": "100 μM, 24 hours", "method": "Whole cell lysate from cells treated with 100 μM 1,3,4-O-Bu3ManNAz for 24 hours and “click” chemistry biotinylated were probed with streptavidin (lane 1), and from the same whole cell lysate, integrin α4β1 was immunopurified using human […] antibody and probed with streptavidin (lane 2). Immunopurified integrin α4β1 was again incubated with the human anti-MUC1 antibody and re-purified (lane 3). The band in lane 4 was the same sample as lane 3 but probed with anti-human integrin α4.\nFIG. 2 depicts the result of treating the sample of FIG. 1, lane 3, with PNGAse F and sialidase, with samples then visualized using streptavidin HRP.\nThe use of tri-butanoylated monosaccharides was examined, initially using 1,3,4-O-Bu3ManNAz to label integrin α4 in CHO cells."}, "host cells [2]": {"test_system": "host cells", "details": "cited from earlier work; for side effects (e.g., cytotoxicity): compared to perbutanoylated, 3,4,6-tributanoylated or peracetylated counterparts; for cytotoxicity over prolonged exposure: beyond 2 to 3 days, up to and within two weeks"}, "GalNAc salvage pathway": {"test_system": "GalNAc salvage pathway", "details": "cited from earlier work"}, "sialic acid pathway": {"test_system": "sialic acid pathway", "details": "cited from earlier work; for efficiency relative to the unmodified sugar: sialic acid production as endpoint"}, "host cells [3]": {"test_system": "host cells", "details": "cited from earlier work"}, "cell surface sialylation": {"test_system": "cell surface sialylation", "test": "Overall sialylation of cell surface glycoconjugates after analog supplementation", "format": "cell-based"}, "[4]": {"test_system": "individual sites of N-glycosylation", "details": "cited from earlier work"}, "[5]": {"test_system": "hexosamine biosynthetic pathway", "details": "cited from earlier work"}}}
{"smiles": "CCCC(=O)OC1OC(CO)[C@@H](OC(=O)CCC)[C@H](OC(=O)CCC)C1NC(=O)CN=[N+]=[N-]", "note": "(stereo partly shown) [1,3,4-O-Bu3ManNAz]", "values": [{"measurement": "labeling of integrin α4", "setting": "[1]", "result": "definitive labeling"}]}
{"smiles": "CCCC(=O)OC1OC(CO)[C@H](OC(=O)CCC)[C@H](OC(=O)CCC)C1NC(C)=O", "note": "(stereo partly shown) [1,3,4-O-Bu3GalNAc]", "values": [{"measurement": "side effects (e.g., cytotoxicity)", "setting": "host cells [2]", "result": "minimal side effects"}, {"measurement": "flux into the GalNAc salvage pathway", "setting": "GalNAc salvage pathway", "result": "high levels of flux"}]}
{"smiles": "CCCC(=O)OCC1OC(OC(=O)CCC)C(NC(C)=O)[C@@H](OC(=O)CCC)[C@@H]1OC(=O)CCC", "note": "(stereo partly shown) [Bu4ManNAc, perbutanoylated ManNAc, reference compound]", "values": [{"measurement": "cytotoxicity over prolonged exposure", "setting": "host cells [2]", "result": "host cells died"}, {"measurement": "effect on cell growth", "setting": "host cells [2]; within 2 or 3 days of treatment", "result": "slowed cell growth"}, {"measurement": "efficiency relative to the unmodified sugar", "setting": "sialic acid pathway", "result": "~2,100 fold"}]}
{"smiles": "CCCC(=O)O.COc1cccc(C#CCON=C2CN3CCC2C3)c1", "note": "(stereo not shown) [n-butyrate]", "values": [{"measurement": "concentration required to elicit desired cell responses", "setting": "host cells [3]", "result": "≥ 10", "unit": "mM"}]}
{"smiles": "CC(=O)NC1C(OC(C)=O)OC(COC(C)=O)[C@@H](OC(C)=O)[C@@H]1OC(C)=O", "note": "(stereo partly shown) [Ac4ManNAc, peracetylated ManNAc]", "values": [{"measurement": "cytotoxicity over prolonged exposure", "setting": "host cells [2]", "result": "cytotoxicity over prolonged exposure to cells"}, {"measurement": "efficiency relative to the unmodified sugar", "setting": "sialic acid pathway", "result": "several hundred fold more efficient"}, {"measurement": "increase in overall sialylation (cell surface / glycoconjugates)", "setting": "cell surface sialylation", "result": "10 to 25", "unit": "%"}]}
{"smiles": "CC(=O)NC1C(O)OC(CO)[C@@H](O)[C@@H]1O", "note": "(stereo partly shown) [ManNAc]", "values": [{"measurement": "concentration supplemented to the cell culture media for a robust increase in sialic acid production", "setting": "sialic acid pathway", "result": "up to 50 mM"}, {"measurement": "increase in overall sialylation (cell surface / glycoconjugates)", "setting": "cell surface sialylation", "result": "5 to 10", "unit": "%"}]}
{"smiles": "CCCC(=O)OC1OC(CO)[C@@H](OC(=O)CCC)[C@H](OC(=O)CCC)C1NC(C)=O", "note": "(stereo partly shown) [1,3,4-O-Bu3ManNAc, tri-butanoylated ManNAc]", "values": [{"measurement": "whole molecule toxicity", "setting": "host cells [2]", "result": "lack “whole molecule” toxicity"}, {"measurement": "growth inhibition", "setting": "host cells [2]; in most cell lines", "result": "mild growth inhibition"}, {"measurement": "increase in sialylation, about ⅓ of glycosylation sites with dramatic increases", "setting": "[4]; about ⅓ of sites", "result": "≥ 8", "unit": "fold"}, {"measurement": "increase in sialylation, about ⅓ of glycosylation sites with modest increase", "setting": "[4]; about ⅓ of sites", "result": "≤ 2", "unit": "fold"}, {"measurement": "level of sialylation, about ⅓ of glycosylation sites that did not respond", "setting": "[4]; about ⅓ of sites", "result": "remained unchanged"}, {"measurement": "increase in degree of sialylation of specific N-glycans", "setting": "[4]", "result": "≥ 8", "unit": "fold"}, {"measurement": "flux into the sialic acid pathway", "setting": "sialic acid pathway", "result": "high levels of flux"}, {"measurement": "increase in overall sialylation (cell surface / glycoconjugates)", "setting": "cell surface sialylation", "result": "50 to 75", "unit": "%"}]}
{"smiles": "CCCC(=O)OC1OC(CO)[C@@H](OC(=O)CCC)[C@H](OC(=O)CCC)C1NC(C)=O", "note": "(stereo partly shown) [1,3,4-O-Bu3GlcNAc]", "values": [{"measurement": "side effects (e.g., cytotoxicity)", "setting": "host cells [2]", "result": "minimal side effects"}, {"measurement": "flux into the hexosamine biosynthetic pathway", "setting": "[5]", "result": "high levels of flux"}]}
